From ChEMBL document CHEMBL1201862, “PubChem BioAssay data set” (2004)
Values joined by “and” are separate entries in the source; they are usually repeats but may differ in a detail not shown here. Equal values may be shown once. Where a name gives a salt, the structure may show the parent alone.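 Method: 48-hour compound exposure of cells in 96-well plates, five concentrations, linear interpolation of endpoints. Here, GI50 denotes the concentration required for 50% inhibition of growth.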 Active and inactive are the calls of the source. No stated cut-off is given here; in the data, active = GI50 up to about 1.1 µM and inactive = higher.

How the values were obtained:
Assay in all cases: inhibition of tumour cell growth, NCI panel, 48 h
CAKI-1 = tested on: CAKI-1
COLO 205 = tested on: COLO 205
EKVX = tested on: EKVX
HCC 2998 = tested on: HCC 2998
HCT-116 = tested on: HCT-116
HCT-15 = tested on: HCT-15
HT-29 = tested on: HT-29
MOLT-4 = tested on: MOLT-4
NCI-H460 = tested on: NCI-H460
OVCAR-3 = tested on: OVCAR-3
OVCAR-4 = tested on: OVCAR-4
SF-539 = tested on: SF-539
SK-MEL-28 = tested on: SK-MEL-28
SK-MEL-5 = tested on: SK-MEL-5
SK-OV-3 = tested on: SK-OV-3
SNB-19 = tested on: SNB-19
SW-620 = tested on: SW-620
UACC-257 = tested on: UACC-257
K562 = tested on: K562
Malme-3M = tested on: Malme-3M

SMILES	GI50 (CAKI-1)	GI50 (COLO 205)	GI50 (EKVX)	GI50 (HCC 2998)	GI50 (HCT-116)	GI50 (HCT-15) [µM]	GI50 (HT-29)	GI50 (MOLT-4)	GI50 (NCI-H460)	GI50 (OVCAR-3)	GI50 (OVCAR-4)	GI50 (SF-539)	GI50 (SK-MEL-28)	GI50 (SK-MEL-5)	GI50 (SK-OV-3)	GI50 (SNB-19)	GI50 (SW-620)	GI50 (UACC-257)	GI50 (K562)	GI50 (Malme-3M)
COc1ccccc1/C=C1\NC(=S)N(/C=C2\C(=O)Oc3ccccc3C2=O)C1=O	> 100 µM (inactive)	45.3 µM (inactive)	16.9 µM (inactive)	53.7 µM (inactive)	14.2 µM (inactive)	32.2	43.5 µM (inactive)	11 µM (inactive)	41.4 µM (inactive)	32.1 µM (inactive)	24.9 µM (inactive)	25.5 µM (inactive)	51.5 µM (inactive)	23.9 µM (inactive)	80.4 µM (inactive)	38.2 µM (inactive)	53.2 µM (inactive)	42.4 µM (inactive)	–	–
CCC1C[N+]23CCc4c([nH]c5ccccc45)C2CC1CC3 (stereo not given)	49.1 µM (inactive)	98.4 µM (inactive)	> 100 µM (inactive)	> 100 µM (inactive)	> 100 µM (inactive)	68.2	> 100 µM (inactive)	29.8 µM (inactive)	49.4 µM (inactive)	55.5 µM (inactive)	81.5 µM (inactive)	–	> 100 µM (inactive)	22.4 µM (inactive)	> 100 µM (inactive)	–	> 100 µM (inactive)	50.1 µM (inactive)	70.8 µM (inactive)	33.7 µM (inactive)
CN(C)CCN(/C(=N/c1ccccc1)N1CCCC1)c1ccccc1	> 100 µM (inactive)	16.9 µM (inactive)	> 100 µM (inactive)	–	3.91 µM (inactive)	26.8	5.01 µM (inactive)	4.92 µM (inactive)	42.4 µM (inactive)	37.3 µM (inactive)	49.5 µM (inactive)	–	> 100 µM (inactive)	30.2 µM (inactive)	> 100 µM (inactive)	> 100 µM (inactive)	31.7 µM (inactive)	55.1 µM (inactive)	10.3 µM (inactive)	> 100 µM (inactive)
CC1=C(C(=O)N[C@@H](CC(C)C)C(=O)O)N2C(=O)[C@@H](NC(=O)C(N)c3ccccc3)[C@H]2SC1 (stereo not given in full)	> 100 µM (inactive)	> 100 µM (inactive)	> 100 µM (inactive)	> 100 µM (inactive)	–	> 100	–	> 100 µM (inactive)	> 100 µM (inactive)	> 100 µM (inactive)	> 100 µM (inactive)	> 100 µM (inactive)	> 100 µM (inactive)	> 100 µM (inactive)	–	> 100 µM (inactive)	> 100 µM (inactive)	> 100 µM (inactive)	> 100 µM (inactive)	> 100 µM (inactive)
CC(=O)N/C(=C\c1ccc(/C=C(\NC(C)=O)C2=NC3C(=O)c4ccccc4C(=O)C3N2)cc1)C1=NC2C(=O)c3ccccc3C(=O)C2N1 (stereo not given)	3.27 µM (inactive)	93.1 µM (inactive)	15.6 µM (inactive)	–	14.4 µM (inactive)	9.14	> 100 µM (inactive)	2.44 µM (inactive)	12.8 µM (inactive)	49.3 µM (inactive)	> 100 µM (inactive)	76.7 µM (inactive)	> 100 µM (inactive)	3.4 µM (inactive)	6.53 µM (inactive)	19 µM (inactive)	1.84 µM (inactive)	> 100 µM (inactive)	19.3 µM (inactive)	–
O=C1/C(=C/c2ccc(Cl)cc2)CNC/C1=C\c1ccc(Cl)cc1	1.58 µM (inactive)	2.14 µM (inactive)	–	1.57 µM (inactive)	0.83 µM (active)	1.16	–	3.72 µM (inactive)	1.35 µM (inactive)	2.01 µM (inactive)	–	1.15 µM (inactive)	1.5 µM (inactive)	4.44 µM (inactive)	12.1 µM (inactive)	1.82 µM (inactive)	0.638 µM (active)	–	–	6.08 µM (inactive)
CC(C)C1CNC(=O)C2(/C=N/C(C(C)C)CNC(=O)C3(/C=N/1)CCCO3)CCCO2 (stereo not given)	> 10 µM (inactive)	> 10 µM (inactive)	> 10 µM (inactive)	> 10 µM (inactive)	> 10 µM (inactive)	> 10	> 10 µM (inactive)	> 10 µM (inactive)	–	> 10 µM (inactive)	> 10 µM (inactive)	> 10 µM (inactive)	> 10 µM (inactive)	> 10 µM (inactive)	> 10 µM (inactive)	> 10 µM (inactive)	> 10 µM (inactive)	> 10 µM (inactive)	> 10 µM (inactive)	> 10 µM (inactive)
COc1ccc(/C=C2\Oc3cc(OC(C)=O)ccc3C2=O)cc1	21.1 µM (inactive)	> 100 µM (inactive)	> 100 µM (inactive)	> 100 µM (inactive)	> 100 µM (inactive)	94.4	–	> 100 µM (inactive)	> 100 µM (inactive)	> 100 µM (inactive)	> 100 µM (inactive)	> 100 µM (inactive)	> 100 µM (inactive)	> 100 µM (inactive)	> 100 µM (inactive)	> 100 µM (inactive)	> 100 µM (inactive)	> 100 µM (inactive)	78.2 µM (inactive)	–
CC1CC2C3CC(F)C4=CC(=O)C=CC4(C)C3(F)C(O)CC2(C)C1(O)C(=O)COC(=O)C(C)(C)C (stereo not given)	> 100 µM (inactive)	> 100 µM (inactive)	> 100 µM (inactive)	> 100 µM (inactive)	> 100 µM (inactive)	> 100	> 100 µM (inactive)	66.2 µM (inactive)	47 µM (inactive)	> 100 µM (inactive)	27.4 µM (inactive)	87.5 µM (inactive)	37.2 µM (inactive)	> 100 µM (inactive)	–	64.3 µM (inactive)	> 100 µM (inactive)	57.9 µM (inactive)	> 100 µM (inactive)	> 100 µM (inactive)
O=C(c1ccccc1)c1cn(/N=C\c2ccccc2)c(=O)nc1-c1ccccc1	–	> 100 µM (inactive)	> 100 µM (inactive)	> 100 µM (inactive)	> 100 µM (inactive)	> 100	> 100 µM (inactive)	> 100 µM (inactive)	> 100 µM (inactive)	> 100 µM (inactive)	> 100 µM (inactive)	> 100 µM (inactive)	> 100 µM (inactive)	> 100 µM (inactive)	> 100 µM (inactive)	> 100 µM (inactive)	> 100 µM (inactive)	> 100 µM (inactive)	> 100 µM (inactive)	> 100 µM (inactive)
O=C1c2ccccc2C(=O)c2c1ccc1c2N=C(c2ccc(F)cc2)CC(c2ccc(Cl)c(Cl)c2)N1 (stereo not given)	3.27 µM (inactive)	18.1 µM (inactive)	3.96 µM (inactive)	13.6 µM (inactive)	11.5 µM (inactive)	5.81	13.5 µM (inactive)	7.43 µM (inactive)	16.9 µM (inactive)	–	19 µM (inactive)	19.3 µM (inactive)	19.3 µM (inactive)	15.6 µM (inactive)	12.7 µM (inactive)	13.1 µM (inactive)	6.11 µM (inactive)	23.7 µM (inactive)	7.16 µM (inactive)	–
O=C(O)CN1CCCC(Cc2c[nH]c3ccccc23)C1 (stereo not given)	> 100 µM (inactive)	> 100 µM (inactive)	> 100 µM (inactive)	> 100 µM (inactive)	–	> 100	–	–	–	> 100 µM (inactive)	> 100 µM (inactive)	> 100 µM (inactive)	> 100 µM (inactive)	> 100 µM (inactive)	> 100 µM (inactive)	–	> 100 µM (inactive)	> 100 µM (inactive)	40.6 µM (inactive)	> 100 µM (inactive)
O=C1C[C@H](c2ccccc2)C2(C(=O)c3ccccc3C2=O)[C@@H](c2ccccc2)C1	7.59 µM (inactive)	18.4 µM (inactive)	–	23.3 µM (inactive)	–	25.3	26.4 µM (inactive)	8.87 µM (inactive)	25.8 µM (inactive)	26.9 µM (inactive)	14.4 µM (inactive)	–	19 µM (inactive)	16.9 µM (inactive)	21.2 µM (inactive)	23.9 µM (inactive)	–	–	9.86 µM (inactive)	36.7 µM (inactive)
O=C1Nc2ccc(S(=O)(=O)N(CCO)CCO)cc2/C1=C1/Nc2ccccc2C1=O	> 100 µM (inactive)	8.05 µM (inactive)	> 100 µM (inactive)	> 100 µM (inactive)	51.6 µM (inactive)	> 100	> 100 µM (inactive)	62.4 µM (inactive)	> 100 µM (inactive)	18.2 µM (inactive)	48 µM (inactive)	–	> 100 µM (inactive)	> 100 µM (inactive)	> 100 µM (inactive)	> 100 µM (inactive)	> 100 µM (inactive)	> 100 µM (inactive)	> 100 µM (inactive)	> 100 µM (inactive)
Nc1ccc2cc3ccc(N)cc3nc2c1 [PROFLAVINE SULFATE]	2.18 µM (inactive) and 1.82 µM (inactive)	561 nM (active) and 543 nM (active)	1.24 µM (inactive)	794 nM (active) and 1.09 µM (active)	366 nM (active) and 405 nM (active)	–	953 nM (active) and 668 nM (active)	338 nM (active) and 284 nM (active)	528 nM (active) and 485 nM (active)	2.77 µM (inactive) and 1.51 µM (inactive)	–	1.26 µM (inactive) and 1.16 µM (inactive)	2.45 µM (inactive) and 1.88 µM (inactive)	1.61 µM (inactive) and 1.38 µM (inactive)	–	–	494 nM (active) and 397 nM (active)	1.87 µM (inactive) and 1.49 µM (inactive)	–	–
